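Five compound concentrations were applied to cells in 96-well plates for 48 hours; endpoints were derived by simple linear interpolation of the resulting dose-response curve. TGI is the concentration that stops growth completely.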
What was measured:
Test in all cases: DTP human tumour cell line panel, 48 h
HOP-62 NSCLC = system: HOP-62 NSCLC
DMS 114 small cell lung = system: DMS 114 small cell lung
SK-MEL-28 melanoma = system: SK-MEL-28 melanoma
KM20L2 colon = system: KM20L2 colon
786-0 renal = system: 786-0 renal
SW-620 colon = system: SW-620 colon
RXF-631 renal = system: RXF-631 renal
SK-MEL-5 melanoma = system: SK-MEL-5 melanoma
EKVX NSCLC = system: EKVX NSCLC
SNB-75 CNS = system: SNB-75 CNS
NCI-H23 lung = system: NCI-H23 lung
OVCAR-5 ovarian = system: OVCAR-5 ovarian
COLO 205 colon = system: COLO 205 colon
DMS 273 small cell lung = system: DMS 273 small cell lung
SN12C renal = system: SN12C renal
K-562 leukemia = system: K-562 leukemia
HCC-2998 colon = system: HCC-2998 colon
HL-60(TB) leukemia = system: HL-60(TB) leukemia
UO-31 renal = system: UO-31 renal
SR leukemia = system: SR leukemia
NCI-H522 lung = system: NCI-H522 lung
SNB-19 CNS = system: SNB-19 CNS
KM12 colon = system: KM12 colon
HCT-116 colon = system: HCT-116 colon
LXFL 529 NSCLC = system: LXFL 529 NSCLC
SF-268 CNS = system: SF-268 CNS
SF-295 CNS = system: SF-295 CNS
OVCAR-8 ovarian = system: OVCAR-8 ovarian
HOP-18 NSCLC = system: HOP-18 NSCLC
UACC-62 melanoma = system: UACC-62 melanoma
DLD-1 colon = system: DLD-1 colon
SF-539 CNS = system: SF-539 CNS
SK-MEL-2 melanoma = system: SK-MEL-2 melanoma
SK-OV-3 ovarian = system: SK-OV-3 ovarian
A549 NSCLC = system: A549 NSCLC
MOLT-4 leukemia = system: MOLT-4 leukemia
RXF 393 renal = system: RXF 393 renal
IGROV1 ovarian = system: IGROV1 ovarian
NCI-H460 lung = system: NCI-H460 lung
NCI-H226 lung = system: NCI-H226 lung
HCT-15 colon = system: HCT-15 colon
SNB-78 CNS = system: SNB-78 CNS
ACHN renal = system: ACHN renal
M19-MEL melanoma = system: M19-MEL melanoma
U251 CNS = system: U251 CNS
UACC-257 melanoma = system: UACC-257 melanoma
M14 melanoma = system: M14 melanoma
HOP-92 NSCLC = system: HOP-92 NSCLC
CCRF-CEM leukemia = system: CCRF-CEM leukemia
RPMI-8226 leukemia = system: RPMI-8226 leukemia
OVCAR-4 ovarian = system: OVCAR-4 ovarian
HT29 colon = system: HT29 colon
MALME-3M melanoma = system: MALME-3M melanoma
OVCAR-3 ovarian = system: OVCAR-3 ovarian
A498 renal = system: A498 renal
TK-10 renal = system: TK-10 renal
LOX IMVI melanoma = system: LOX IMVI melanoma
XF 498 CNS = system: XF 498 CNS
CAKI-1 renal = system: CAKI-1 renal

Measured: TGI

N/N=c1\c2ccccc2c2cc3c(cc12)/c(=N/N)c1ccccc13
not listed: OVCAR-3 ovarian | A498 renal | TK-10 renal | LOX IMVI melanoma | XF 498 CNS | CAKI-1 renal
> 100 µM: all other assays above

NCCNCc1c2ccccc2c(CNCCN)c2ccccc12
62.6 µM: KM12 colon
35.2 µM: NCI-H23 lung | M14 melanoma
58.6 µM: HL-60(TB) leukemia
70.8 µM: OVCAR-3 ovarian
27 µM: NCI-H460 lung
53.4 µM: 786-0 renal
29.1 µM: SK-MEL-2 melanoma
60.3 µM: OVCAR-8 ovarian
90.1 µM: HOP-18 NSCLC
29.5 µM: SF-539 CNS
69.3 µM: HOP-62 NSCLC
82.1 µM: SNB-78 CNS
38.6 µM: RXF 393 renal
90.3 µM: SK-MEL-5 melanoma
38.7 µM: A549 NSCLC
97.7 µM: U251 CNS
30.9 µM: MOLT-4 leukemia
97.5 µM: OVCAR-5 ovarian
22.1 µM: LXFL 529 NSCLC
48.3 µM: HCT-116 colon
58.9 µM: SN12C renal
35.5 µM: UACC-257 melanoma
84.4 µM: M19-MEL melanoma
75.3 µM: A498 renal
23.3 µM: HCC-2998 colon
36.7 µM: K-562 leukemia
45.9 µM: HOP-92 NSCLC
86.2 µM: CCRF-CEM leukemia
74.1 µM: KM20L2 colon
> 100 µM: SW-620 colon | RXF-631 renal | COLO 205 colon | UO-31 renal | SR leukemia | DLD-1 colon | IGROV1 ovarian | HCT-15 colon | ACHN renal | TK-10 renal | HT29 colon
29.8 µM: MALME-3M melanoma
27.4 µM: SF-268 CNS
53.5 µM: UACC-62 melanoma
21.2 µM: NCI-H522 lung
82.8 µM: SF-295 CNS
33.1 µM: DMS 114 small cell lung
50.1 µM: EKVX NSCLC

c1ccc2c(c1)N=C(c1cccc3ccccc13)CC(c1ccc3c(c1)OCO3)S2 (stereo not drawn)
not listed: DMS 114 small cell lung | SK-MEL-28 melanoma | HCT-15 colon | HOP-92 NSCLC | RPMI-8226 leukemia
> 100 µM: all other assays above

Ic1cc2c(cc1C1SCCCS1)OCO2
not listed: XF 498 CNS
> 100 µM: all other assays above
